System: IL-1-induced release of neutral protease from rabbit articular chondrocytes
Experiment: Inhibition of IL-1-induced release of neutral protease from rabbit articular chondrocytes (azocoll neutral protease assay)
Assay type: cell-based, rabbit (male New Zealand white)
Conditions: Oryctolagus cuniculus, Chondrocyte, purified human IL-1 stimulation
Description: The ability of the compounds of the inventions to inhibit interleukin 1 is measured by the ability of the test compounds to inhibit the IL-1-induced release of neutral protease from rabbit articular chondrocytes.
This assay is carried out as follows:
Isolation of rabbit chondrocytes
Male New Zealand white rabbits are anesthetized with 50 mg/kg of ketamine (i.m.) and killed by an intracardiac injection of 3 mls of Nembutal. The knee joints of both legs are resected and the articular surfaces are exposed. Cartilage slices are obtained using a scalpel and are placed in a tissue culture dish (100 mm diameter) containing 10 mls of Hank's balanced salt solution (HBSS). The chondrocytes within the cartilage slices are then liberated by a series of enzyme digestions. The slices are incubated for 10 minutes at 37° C. in 0.05% hyaluronidase (Sigma H-3884), rinsed with HBSS and incubated with 0.2% trypsin (Sigma T-2395) for 10 minutes at 37° C. The slices are rinsed again and incubated for 10 minutes at 37° C. with 1.2% collagenase (Sigma C-5138). The slices are then rinsed again with HBSS and resuspended in 10 ml of Ham's F-12 medium containing 10% fetal bovine calf serum (FCS) and 0.2% collagenase and incubated overnight at 37° C. in a 5% CO2 incubator. The next day, the medium containing the digested cartilage fragments and liberated chondrocytes is transferred to a 15 ml centrifuge tube and the cells are collected by centrifugation and washed twice and resuspended in Ham's F-12 medium. The cells are then plated into 24-well tissue culture plates (2×10^ 5 cells/well) and incubated at […] until confluent (usually 4-6 days).
Stimulation of chondrocytes and drug treatment
The confluent chondrocytes are rinsed twice with serum-free Ham's F-12 medium and 1 ml is added to each well. Fifty μl of purified human IL-1 (100 Units/ml; Genzyme Corporation, Boston, MA) is then added to stimulate these cells to secrete neutral protease. To measure drug effects, the cells are treated with test compound 10 minutes prior to addition of IL-1. The standard screening dose is 10 μM. Twenty-four hours after IL-1 stimulation, supernatant fluids are collected and assayed for neutral protease activity.
The neutral protease activity of chondrocyte supernatant fluids is determined by their ability to degrade an insoluble protease substrate, azocoll (Sigma). Supernatants are treated for 10 minutes at room temperature with 350 μM p-aminophenylmurcuric acetate to activate the latent enzyme. Three hundred of μl of supernatant is then mixed with 500 μl of a 20 mg/ml suspension of azocoll and incubated at 37° C. for 18-24 hours with gentle rocking. The mixtures are centrifuged and the amount of substrate hydrolyzed is determined by measuring the absorbance of the supernatant at 520 nm.
Drug effects are calculated as the % change in enzyme activity (absorbance)by supernatants from drug-treated chondrocytes relative to enzyme activity of supernatants from vehicle-treated chondrocytes as follows: [formula]
Where tested in this assay, the compounds of the invention gave the following results: […]

[1] = test compound 10 min before IL-1, 24 h, read-out: % Inhibition (I.S.D.)

Row | Structure (SMILES) | inhibition at 10 µM [1] | inhibition at 0.1 µM (dose 0.1 μM, test compound 10 min before IL-1, 24 h, read-out: % Inhibition (I.S.D.)) | inhibition at 1 µM (dose 1 μM, test compound 10 min before IL-1, 24 h, read-out: % Inhibition (I.S.D.)) | IC50 (24 h, doses 10, 1 and 0.1 μM)
1 | N#Cc1ccc(NCCc2[nH]c3c(cnc4cc(Cl)ccc43)c2C=O)cc1 [Example 1, 4-[[2-(7-Chloro-3-formyl-1H-pyrrolo[3,2-c]-quinolin-2-yl)ethyl]amino]benzonitrile] | 21% | – | – | –
2 | CCOC(=O)c1ccc(NCCc2[nH]c3c(cnc4cc(Cl)ccc43)c2C=O)cc1 [Example 2, 4-[[2-(7-Chloro-3-formyl-1H-pyrrolo[3,2-c]quinolin-2-yl)ethyl]amino]benzoicacid ethyl ester] | 50% | – | – | –
3 | CS(=O)(=O)c1ccc(NCCc2[nH]c3c(cnc4cc(Cl)ccc43)c2C=O)cc1 [Example 3, 7-Chloro-2-[2-[[4-(methylsulfonyl)phenyl]amino]ethyl]-1H-pyrrolo[3,2-c]quinoline-3-carboxaldehyde] | 28% | – | – | –
4 | N#Cc1ccc(NCCc2[nH]c3c(cnc4cc(Cl)ccc43)c2C=NNc2ccccc2)cc1 [Example 4, 4-[[2-[7-Chloro-3-[(phenylhydrazono)methyl]-1H-pyrrolo[3,2-c]quinolin-2-yl]ethyl]amino]benzonitrile] | 52% | – | – | –
5 | CCOC(=O)c1ccc(NCCc2[nH]c3c(cnc4cc(Cl)ccc43)c2C=NNc2ccccc2)cc1 [Example 5, 4-[[2-[7-Chloro-3-[(phenylhydrazono)methyl]-1H-pyrrolo[3,2-c]quinolin-2-yl]ethyl]amino]benzoic acid ethyl ester] | 54% | – | – | –
6 | CS(=O)(=O)c1ccc(NCCc2[nH]c3c(cnc4cc(Cl)ccc43)c2C=NNc2ccccc2)cc1 [Example 6, 7-Chloro-2-[2-[[4-(methylsulfonyl)phenyl]amino]ethyl]-1H-pyrrolo[3,2-c]quinoline-3-carboxaldehyde phenylhydrazone] | 80% | 14% | 23% | 2900 nM
